Bridge positions count the residues as written; N and C are the ends. Square brackets hold non-standard residues; d marks the D form. Peptide text beside a SMILES is read from it. * marks the point of attachment. Decanoyl(3R-OH) = CCCCCCC[C@@H](O)CC(=O)*; dDab = NCC[C@@H](N)C(=O)O; Dab = NCC[C@H](N)C(=O)O
Tests used:
E. coli = experiment: microbe, parasite or virus in culture; details: for E. coli MIC: non-treated polystyrene plate; for MIC: 3 h
Experimental: Bacteria were obtained from the American Type Culture Collection (ATCC; Manassas, VA, USA), Merck Sharp & Dohme (Kenilworth, NJ), the Coli Genetic Stock Center (CGSC, Yale University), Network on Antimicrobial Resistance in Staphylococcus aureus (NARSA) via BEI Resources (www.beiresources.org) and independent academic clinical isolate and mutant collections. All species used in this study were described fully in Table S4. Bacteria were cultured in Cation-Adjusted Mueller-Hinton Broth (CAMHB, Bacto Laboratories, Cat No. 212322) or Muller Hinton Broth (MHB, Bacto Laboratories, Cat No. 211443) at 37 °C overnight. A sample of each culture was then diluted 50-fold in MHB and incubated at 37 °C for 1.5–3 h. The stock solutions of vancomycin probes 7, 8 and 9 were prepared at 1.28 mg/mL in sterile water. The compounds were serially diluted two-fold across the wells, with concentrations ranging from 0.06 µg/mL to 128 µg/mL, plated in duplicate. […]

E. coli ATCC 25922 = experiment: Permeability test in Gram-negative bacteria, flow cytometry method (Fig. 4i); assay type: cell-based; details: compound 0.125–128 µg/mL 1 h 37 °C, then probe 9 32 µg/mL 30 min
Experimental: E. coli ATCC 25922 cells were cultured in LB at 37 °C overnight. […] The resultant mid-log phase cultures were harvested and washed once with HBSS, then resuspended in HBSS to an OD600 of 1. Then 1 mL of the cultures were transferred to Eppendorf tubes and centrifuged. Solutions (1 mL) of antibiotics (0.125–128 µg /mL) and isopropanol (100 %) was added, then left for 1 h at 37 °C with shaking (180 rpm). […] Bacteria were washed again with HBSS, the pellets were suspended in 200 µL of HBSS, and 100 µL of the suspended bacteria solution was added into black 96-well plates (Black flat bottom, 96-Well plate, Corning, Cat No. CLS3915-100EA) for Tecan plate reader measurement (Tecan Plate Reader, Infinite M1000 Pro). Excitation: 475 nm; Emission: 550 nm. On the other hand, suspended bacteria solution was then diluted 1000-fold in HBSS for flow cytometer measurement (Cytoflex S, Beckman Coulter, Inc. 250 S. Kraemer Blvd. Brea, CA 92821 U.S.A.). The detector used here was FITC (Excitation 488 nm; Emission 525/40 nm). 40000 events were collected. The data was analysed using Kaluza Analysis 2.1 software (Beckman Coulter, Inc. 250 S. Kraemer Blvd. Brea, CA 92821 U.S.A.) and statistical software GraphPad Prism 8 (San Diego, CA, U.S.A.).

S. aureus ATCC 25923 [1] = experiment: Flow cytometry comparison with commercial fluorescent probes (Fig. S2A); assay type: cell-based; details: 2 and 16 µg/mL, 30 min 37 °C
Source text: (§1) Figure S2. Comparison of probe 7 and probe 9 to commercial fluorescent probes using flow cytometry and microscopy. Labelling of S. aureus ATCC 25923 (A) and E. coli ATCC25922 (B) with vancomycin probe 7, probe 9, Van-FITC (SBR00028, Sigma-Aldrich), and Van-BODIPY (V34850, Invitrogen™) measured using flow […]
(§2) flow cytometer. The data are presented as the mean ± SEM (n = 3). GeoMean: Geometric Mean. (C) Airyscan confocal super-resolution imaging of vancomycin probe 7, probe 9, Van-FITC (SBR00028, Sigma-Aldrich), and Van-BODIPY (V34850, Invitrogen™) in S. aureus ATCC 25923. Bacteria were stained with probes (2 and 16 µg/mL, Green) for 30 min at 37 °C. Arrows indicate cells with Van-BODIPY entering cytoplasm. Scale bar = 1 µm.
(§3) (1 picture or pasted object on this page, not shown here)

E. coli ATCC25922 = experiment: Flow cytometry comparison with commercial fluorescent probes (Fig. S2B); assay type: cell-based; details: 2 and 16 µg/mL, 30 min 37 °C
Source text: as §1, §2, §3

S. aureus ATCC 25923 [2] = experiment: Airyscan confocal super-resolution imaging, comparison of probes (Fig. S2C); assay type: cell-based; details: 2 and 16 µg/mL, 30 min 37 °C
Experimental: Figure S2. Comparison of probe 7 and probe 9 to commercial fluorescent probes using flow cytometry
and microscopy. […]
Van-BODIPY (V34850, Invitrogen™) in S. aureus ATCC 25923. Bacteria were stained with probes (2 and 16
µg/mL, Green) for 30 min at 37 °C. Arrows indicate cells with Van-BODIPY entering cytoplasm. Scale bar = 1 µm.

S. aureus = details: tested S. aureus strains (Table S3); dissolved in DMSO
Experimental: Bacteria were obtained from the American Type Culture Collection (ATCC; Manassas, VA, USA), Merck Sharp & Dohme (Kenilworth, NJ), the Coli Genetic Stock Center (CGSC, Yale University), Network on Antimicrobial Resistance in Staphylococcus aureus (NARSA) via BEI Resources (www.beiresources.org) and independent academic clinical isolate and mutant collections. All species used in this study were described fully in Table S4. Bacteria were cultured in Cation-Adjusted Mueller-Hinton Broth (CAMHB, Bacto Laboratories, Cat No. 212322) or Muller Hinton Broth (MHB, Bacto Laboratories, Cat No. 211443) at 37 °C overnight. A sample of each culture was then diluted 50-fold in MHB and incubated at 37 °C for 1.5–3 h. […] The compounds were serially diluted two-fold across the wells, with concentrations ranging from 0.06 µg/mL to 128 µg/mL, plated in duplicate. The resultant mid-log phase culture was diluted to 1 × 10^6 CFU/mL, then 50 µL was added to each well of the compound-containing 96-well plates (Corning, Cat. No 3641, non-binding surface (NBS) plates), giving a cell density of 5 × 10^5 CFU/mL, and a final compound concentration range of 0.03 µg/mL to 64 µg/mL.

[3] = Table S2: CGSC7139 DC2 mutant, CaMHB
[4] = Table S2: CGSC7139 DC2 mutant, MHB
[5] = Table S2: MB4902 LpxC mutant, CaMHB
[6] = Table S2: MB4902 LpxC mutant, MHB

Row | Compound | E. coli MIC (E. coli; [3]) | E. coli MIC (E. coli; [4]) | E. coli MIC (E. coli; [5]) | E. coli MIC (E. coli; [6]) | outer membrane damage: fluorescence of probe 9 labelling after treatment (in words) (E. coli ATCC 25922) | MIC (E. coli) | staining of S. aureus (flow cytometry, in words) (S. aureus ATCC 25923 [1]) | staining of E. coli (flow cytometry, in words) (E. coli ATCC25922) | peptidoglycan labelling pattern (Airyscan imaging, in words) (S. aureus ATCC 25923 [2]) | antimicrobial activity at the highest concentration tested (S. aureus)
1 | CC(C)[C@@H]1NC(=O)CNC(=O)[C@H](CC(N)=O)NC(=O)[C@H](CCCNC(=N)N)NC(=O)[C@H](Cc2ccc(O)cc2)NC(=O)[C@H](C(C)C)NC(=O)[C@@H]2CSSC[C@H](NC(=O)[C@H](C(C)C)NC(=O)[C@H](CCCNC(=N)N)NC1=O)C(=O)N[C@@H](Cc1ccc(O)cc1)C(=O)N[C@@H](CCCNC(=N)N)C(=O)N[C@@H](CCCNC(=N)N)C(=O)N[C@H](C(=O)N[C@@H](CC(N)=O)C(=O)O)CSSC[C@H](NC(=O)[C@H](Cc1ccccc1)NC(=O)CN)C(=O)N[C@@H](Cc1c[nH]c3ccccc13)C(=O)N[C@@H](Cc1ccc(O)cc1)C(=O)N[C@@H](C(C)C)C(=O)N2 [Arenicin-3] (H-GFCWYVCVYRNGVRVCYRRCN-OH; disulfide 3-20, 7-16; N-terminus and C-terminus assumed) | 2 to 8 µg/mL | 2 to 8 µg/mL | 1 µg/mL | 1 to 2 µg/mL | increased fluorescence at the lowest concentrations |  |  |  |  | 
2 | CCCCCCC[C@@H](O)CC(=O)N[C@H](CCN)C(=O)N[C@H]1CCNC(=O)[C@H](CC(C)C)NC(=O)[C@H](CCN)NC(=O)[C@H](CCN)NC(=O)[C@H](CC(C)C)NC(=O)[C@@H](Cc2ccccc2)NC(=O)[C@H](CCN)NC1=O [Octapeptin C4] ({Decanoyl(3R-OH)}-[dDab][Dab][Dab][dF]L[Dab][Dab]L; lactam 2-C (inferred); N-terminus assumed) | 2 to 8 µg/mL | 1 to 2 µg/mL | 2 µg/mL | 2 µg/mL | substantially higher concentrations before membrane damage was seen |  |  |  |  | 
3 | CN[C@H](CC(C)C)C(=O)N[C@H]1C(=O)N[C@@H](CC(N)=O)C(=O)N[C@H]2C(=O)N[C@H]3C(=O)N[C@H](C(=O)N[C@H](C(=O)O)c4cc(O)cc(O)c4-c4cc3ccc4O)[C@H](O)c3ccc(c(Cl)c3)Oc3cc2cc(c3O[C@@H]2O[C@H](CO)[C@@H](O)[C@H](O)[C@H]2O[C@H]2C[C@](C)(NC(=O)CCc3ccc4n3[B-](F)(F)[N+]3=C(C)C=C(C)C3=C4)[C@H](O)[C@H](C)O2)Oc2ccc(cc2Cl)[C@H]1O [Van-BODIPY] |  |  |  |  |  | > 64 µg/mL | greatest intensity | stained a larger population of cells than the other probes | label the cells more uniformly | 
4 | CC(C)C[C@H](C(=O)N[C@H]1C(=O)N[C@@H](CC(N)=O)C(=O)N[C@H]2C(=O)N[C@H]3C(=O)N[C@H](C(=O)N[C@H](C(=O)O)c4cc(O)cc(O)c4-c4cc3ccc4O)[C@H](O)c3ccc(c(Cl)c3)Oc3cc2cc(c3O[C@@H]2O[C@H](CO)[C@@H](O)[C@H](O)[C@H]2O[C@H]2C[C@](C)(N)[C@H](O)[C@H](C)O2)Oc2ccc(cc2Cl)[C@H]1O)N(C)C(=S)Nc1ccc2c(c1)C(=O)OC21c2ccc(O)cc2Oc2cc(O)ccc21 [Van-FITC] |  |  |  |  |  | > 64 µg/mL | the worst | did not show much staining | no fluorescence signal observed at 2 µg/mL | > 32 µg/mL
